Laboratory results taken from ChEMBL document CHEMBL6127132, “Design, Synthesis, and Biological Evaluation of Novel Diaminopyrimidine Macrocycles as Fourth Generation Reversible EGFR Inhibitors That Overcome Clinical Resistance to Osimertinib Mediated by C797S Mutation” (J Med Chem, 2024).

What was measured:
[1] = Antiproliferative activity against mouse BaF3 cells assessed as inhibition of cell proliferation incubated for 72 hrs by CCK-8 assay; format: toxicity, cell-based
[2] = target: Epidermal growth factor receptor (Mus musculus) (UniProt Q01279); test: Inhibition of EGFR phosphorylation in mouse BaF3 cells harboring EGFR L858R/T790M/C797S mutant preincubated for 2 hrs followed by EGF stimulation and measured after 15 mins by Western blot analysis; format: cell-based; conditions: dose 1-1000 nM, time 135.0 min
Epidermal growth factor receptor (Mus musculus), sequence (Q01279 whole entry): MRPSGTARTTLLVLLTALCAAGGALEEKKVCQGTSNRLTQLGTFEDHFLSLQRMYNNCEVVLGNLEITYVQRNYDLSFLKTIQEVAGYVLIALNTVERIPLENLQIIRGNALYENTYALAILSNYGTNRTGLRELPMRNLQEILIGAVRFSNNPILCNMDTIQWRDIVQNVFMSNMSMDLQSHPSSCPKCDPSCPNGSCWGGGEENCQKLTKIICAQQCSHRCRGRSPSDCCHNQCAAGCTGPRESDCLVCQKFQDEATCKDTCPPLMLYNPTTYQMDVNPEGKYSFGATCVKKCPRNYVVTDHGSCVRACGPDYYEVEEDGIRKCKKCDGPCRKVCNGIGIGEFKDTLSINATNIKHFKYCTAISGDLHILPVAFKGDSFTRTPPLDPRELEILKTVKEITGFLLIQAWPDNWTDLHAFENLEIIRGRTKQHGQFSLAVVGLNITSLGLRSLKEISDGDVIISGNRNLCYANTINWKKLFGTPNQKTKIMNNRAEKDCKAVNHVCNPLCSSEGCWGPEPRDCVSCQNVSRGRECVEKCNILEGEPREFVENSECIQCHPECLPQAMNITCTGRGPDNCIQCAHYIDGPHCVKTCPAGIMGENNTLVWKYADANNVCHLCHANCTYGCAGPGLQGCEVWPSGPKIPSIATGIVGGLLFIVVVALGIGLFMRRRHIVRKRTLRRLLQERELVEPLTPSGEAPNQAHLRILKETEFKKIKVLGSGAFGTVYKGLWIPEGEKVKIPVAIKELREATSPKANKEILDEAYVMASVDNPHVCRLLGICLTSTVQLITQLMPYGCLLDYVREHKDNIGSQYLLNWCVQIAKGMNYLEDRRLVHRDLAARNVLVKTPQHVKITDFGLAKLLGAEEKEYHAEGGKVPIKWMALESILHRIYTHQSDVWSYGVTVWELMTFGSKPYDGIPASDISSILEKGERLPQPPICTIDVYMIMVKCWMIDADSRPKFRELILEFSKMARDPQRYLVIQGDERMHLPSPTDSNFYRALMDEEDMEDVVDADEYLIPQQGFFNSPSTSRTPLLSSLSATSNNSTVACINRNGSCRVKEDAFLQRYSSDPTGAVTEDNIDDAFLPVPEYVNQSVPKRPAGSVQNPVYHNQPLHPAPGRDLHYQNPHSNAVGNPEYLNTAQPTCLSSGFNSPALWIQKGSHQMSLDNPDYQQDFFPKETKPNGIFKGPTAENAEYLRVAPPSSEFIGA

[3] = target: Epidermal growth factor receptor (Mus musculus) (UniProt Q01279); test: Inhibition of EGFR phosphorylation in mouse BaF3 cells harboring EGFR 19del/T790M/C797S mutant preincubated for 2 hrs followed by EGF stimulation and measured after 15 mins by Western blot analysis; format: cell-based; conditions: dose 1-1000 nM, time 135.0 min
[4] = target: Epidermal growth factor receptor (Mus musculus) (UniProt Q01279); test: Inhibition of EGFR downstream signaling in mouse BaF3 cells harboring EGFR L858R/T790M/C797S mutant assessed as reduction in phosphorylated ERK level preincubated for 2 hrs followed by EGF stimulation and measured after 15 mins by Western blot analysis; format: cell-based; conditions: dose 1-1000 nM, time 135.0 min
[5] = target: Epidermal growth factor receptor (Mus musculus) (UniProt Q01279); test: Inhibition of EGFR downstream signaling in mouse BaF3 cells harboring EGFR 19del/T790M/C797S mutant assessed as reduction in phosphorylated ERK level preincubated for 2 hrs followed by EGF stimulation and measured after 15 mins by Western blot analysis; format: cell-based; conditions: dose 1-1000 nM, time 135.0 min
[6] = Induction of apoptosis in mouse BaF3 cells harboring EGFR 19del/T790M/C797S mutant assessed as early apoptotic cells at 30 nM incubated for 48 hrs by Annexin V-FITC/PI staining based flow cytometric analysis (reference value: 0.46 %); format: functional
[7] = Induction of apoptosis in mouse BaF3 cells harboring EGFR 19del/T790M/C797S mutant assessed as late apoptotic cells at 30 nM incubated for 48 hrs by Annexin V-FITC/PI staining based flow cytometric analysis (reference value: 2.29 %); format: functional
[8] = Induction of apoptosis in mouse BaF3 cells harboring EGFR 19del/T790M/C797S mutant assessed as early apoptotic cells at 100 nM incubated for 48 hrs by Annexin V-FITC/PI staining based flow cytometric analysis (reference value: 0.46 %); format: functional
[9] = Induction of apoptosis in mouse BaF3 cells harboring EGFR 19del/T790M/C797S mutant assessed as late apoptotic cells at 100 nM incubated for 48 hrs by Annexin V-FITC/PI staining based flow cytometric analysis (reference value: 2.29 %); format: functional
[10] = Induction of apoptosis in mouse BaF3 cells harboring EGFR 19del/T790M/C797S mutant assessed as early apoptotic cells at 300 nM incubated for 48 hrs by Annexin V-FITC/PI staining based flow cytometric analysis (reference value: 0.46 %); format: functional
[11] = Induction of apoptosis in mouse BaF3 cells harboring EGFR 19del/T790M/C797S mutant assessed as late apoptotic cells at 300 nM incubated for 48 hrs by Annexin V-FITC/PI staining based flow cytometric analysis (reference value: 2.29 %); format: functional
[12] = Induction of apoptosis in mouse BaF3 cells harboring EGFR 19del/T790M/C797S mutant assessed as early apoptotic cells at 1000 nM incubated for 48 hrs by Annexin V-FITC/PI staining based flow cytometric analysis (reference value: 0.46 %); format: functional
[13] = Induction of apoptosis in mouse BaF3 cells harboring EGFR 19del/T790M/C797S mutant assessed as late apoptotic cells at 1000 nM incubated for 48 hrs by Annexin V-FITC/PI staining based flow cytometric analysis (reference value: 2.29 %); format: functional
[14] = tested on: BaF3; test: Induction of apoptosis in mouse BaF3 cells harboring EGFR 19del/T790M/C797S mutant assessed as caspase 3 cleavage incubated for 48 hrs by Western blot analysis; format: functional, cell-based; conditions: dose 30-1000 nM
[15] = Half-life in male SPF Sprague-Dawley rat at 2 mg/kg, iv measured after 24 hrs by LC-MS/MS analysis; format: ADME, organism-based; conditions: in vivo
[16] = Tmax in male SPF Sprague-Dawley rat at 2 mg/kg, iv measured after 24 hrs by LC-MS/MS analysis; format: ADME, organism-based; conditions: in vivo
[17] = Cmax in male SPF Sprague-Dawley rat at 2 mg/kg, iv measured after 24 hrs by LC-MS/MS analysis; format: ADME, organism-based; conditions: in vivo
[18] = AUC (0 to t) in male SPF Sprague-Dawley rat at 2 mg/kg, iv measured after 24 hrs by LC-MS/MS analysis; format: ADME, organism-based; conditions: in vivo
[19] = AUC (0 to infinity) in male SPF Sprague-Dawley rat at 2 mg/kg, iv measured after 24 hrs by LC-MS/MS analysis; format: ADME, organism-based; conditions: in vivo
[20] = Clearance in male SPF Sprague-Dawley rat at 2 mg/kg, iv measured after 24 hrs by LC-MS/MS analysis; format: ADME, organism-based; conditions: in vivo
[21] = MRT (0 to t) in male SPF Sprague-Dawley rat at 2 mg/kg, iv measured after 24 hrs by LC-MS/MS analysis; format: ADME, organism-based; conditions: in vivo
[22] = Half-life in male SPF Sprague-Dawley rat at 10 mg/kg, po measured after 24 hrs by LC-MS/MS analysis; format: ADME, organism-based; conditions: in vivo
[23] = Tmax in male SPF Sprague-Dawley rat at 10 mg/kg, po measured after 24 hrs by LC-MS/MS analysis; format: ADME, organism-based; conditions: in vivo
[24] = Cmax in male SPF Sprague-Dawley rat at 10 mg/kg, po measured after 24 hrs by LC-MS/MS analysis; format: ADME, organism-based; conditions: in vivo
[25] = AUC (0 to t) in male SPF Sprague-Dawley rat at 10 mg/kg, po measured after 24 hrs by LC-MS/MS analysis; format: ADME, organism-based; conditions: in vivo
[26] = AUC (0 to infinity) in male SPF Sprague-Dawley rat at 10 mg/kg, po measured after 24 hrs by LC-MS/MS analysis; format: ADME, organism-based; conditions: in vivo
[27] = MRT (0 to t) in male SPF Sprague-Dawley rat at 10 mg/kg, po measured after 24 hrs by LC-MS/MS analysis; format: ADME, organism-based; conditions: in vivo
[28] = Oral bioavailability in male SPF Sprague-Dawley rat at 10 mg/kg measured after 24 hrs by LC-MS/MS analysis; format: ADME, organism-based; conditions: in vivo
[29] = tested on: BaF3; test: Antitumor activity against mouse BaF3 cells harboring 19del/T790M/C797S mutant implanted in female BALB/c nu/nu mouse assessed as tumor growth inhibition at 20 mg/kg, po administered once daily for 9 days relative to control; format: functional; conditions: BaF3, 216 h, time 9 day, read-out: TGI
[30] = Toxicity in female BALB/c nu/nu mouse implanted with mouse BaF3 cells harboring 19del/T790M/C797S mutant assessed as mortality at 20 mg/kg, po administered once daily for 9 days; format: organism-based; conditions: in vivo, 216 h, time 9 day
[31] = Toxicity in female BALB/c nu/nu mouse implanted with mouse BaF3 cells harboring 19del/T790M/C797S mutant assessed as body weight loss at 20 mg/kg, po administered once daily for 9 days; format: organism-based; conditions: in vivo, 216 h, time 9 day
[32] = tested on: BaF3; test: cells; conditions: Mus musculus, BaF3, 72 h
[33] = tested on: BaF3; test: cells; conditions: Mus musculus, BaF3, 72 h; remark: listed apart in the source
[34] = cells; conditions: Homo sapiens, PC9-OR, 72 h
[35] = tested on: A-431; test: cells; conditions: Homo sapiens, A-431, 72 h
Description: Antiproliferative activity against human A-431 cells harboring wildtype EGFR assessed as inhibition of cell proliferation measured after 72 hrs by SRB assay

COc1cc(N2CCOCC2)c2cc1Nc1ncc(C)c(n1)Nc1ccc(cc1P(C)(C)=O)OCCCn1cc-2cn1
IC50 at 72 h [1]: 2100 nM
inhibition [2]: Dose-Dependent Effect
inhibition [3]: Dose-Dependent Effect
inhibition [4]: Dose-Dependent Effect
inhibition [5]: Dose-Dependent Effect
Activity [6]: 2.26%
Activity [7]: 1.64%
Activity [8]: 5.98%
Activity [9]: 3.44%
Activity [10]: 34.23%
Activity [11]: 16.34%
Activity [12]: 71.63%
Activity [13]: 17.31%
Activity [14]: Dose-Dependent Effect
half-life [15]: 5.54 h
Tmax [16]: 4.98 min
Cmax [17]: 2150 ng/mL
AUC(0-t) at 24 h [18]: 7630 ng·h/mL
AUC(0-inf) [19]: 7900 ng·h/mL
clearance [20]: 4.27 mL/min/kg
MRT last at 24 h [21]: 3.89 h
half-life [22]: 4.32 h
Tmax [23]: 1.67 h
Cmax [24]: 1820 ng/mL
AUC(0-t) at 24 h [25]: 18000 ng·h/mL
AUC(0-inf) [26]: 18500 ng·h/mL
MRT last at 24 h [27]: 5.86 h
bioavailability [28]: 47%
inhibition in vivo at 20 mg/kg [29]: 65.4%
Activity [30]: Non-Toxic
Activity [31]: Non-Toxic
IC50 [32]: 41 nM
IC50 [33]: 52 nM
IC50 [34]: 56 nM
IC50 [35]: 246 nM
